Experiment: xn = mol fraction of the nth substance listed
Settings: Liquid, Vibrating tube method

Cc1ccccc1 [toluene] + CCCO
mass density [kg/m3]
Settings	x2 = 0	x2 = 0.125	x2 = 0.25	x2 = 0.375	x2 = 0.5	x2 = 0.625	x2 = 0.75	x2 = 0.875
293.15 K, 100 kPa	867.1	860.6	854.5	848.1	841.2	833.5	825.1	815.3
293.15 K, 5000 kPa	870.6	864.1	858.2	851.7	844.7	837	828.7	818.9
293.15 K, 10000 kPa	874.2	867.7	861.7	855.1	848.4	840.6	832.3	822.6
293.15 K, 15000 kPa	877.6	871.2	865.2	858.6	851.8	844.1	835.8	826.1
293.15 K, 20000 kPa	881.1	874.5	868.5	861.9	855.1	847.4	839.2	829.4
293.15 K, 25000 kPa	884.2	877.8	871.7	865.1	858.3	850.6	842.4	832.6
293.15 K, 30000 kPa	887.3	880.9	874.9	868.3	861.5	853.7	845.4	835.7
293.15 K, 35000 kPa	890.3	883.9	877.9	871.3	864.5	856.7	848.4	838.7
293.15 K, 40000 kPa	893.3	886.9	880.9	874.2	867.4	859.7	851.3	841.7
293.15 K, 45000 kPa	896.1	889.7	883.7	877.1	870.3	862.6	854.1	844.4
293.15 K, 50000 kPa	898.9	892.5	886.5	879.9	873.1	865.3	856.9	847.2
293.15 K, 55000 kPa	901.6	895.2	889.2	882.6	875.7	868	859.6	849.7
293.15 K, 60000 kPa	904.2	897.9	891.8	885.2	878.3	870.6	862.1	852.3
293.15 K, 65000 kPa	906.7	900.5	894.4	887.7	880.9	873.1	864.7	854.8
303.15 K, 100 kPa	857.5	851.1	845	838.6	832	824.4	816.1	806.6
303.15 K, 5000 kPa	861.4	855	848.9	842.4	835.9	828.3	820.1	810.6
303.15 K, 10000 kPa	865.1	858.8	852.7	846.2	839.8	832.2	824	814.3
303.15 K, 15000 kPa	869	862.4	856.4	849.9	843.4	835.8	827.8	818.3
303.15 K, 20000 kPa	872.4	866	859.9	853.4	846.9	839.4	831.3	821.7
303.15 K, 25000 kPa	875.8	869.4	863.3	856.8	850.4	842.8	834.6	825.2
303.15 K, 30000 kPa	879	872.6	866.6	860.1	853.5	846	837.7	828.3
303.15 K, 35000 kPa	882.1	875.8	869.8	863.3	856.7	849.2	840.8	831.4
303.15 K, 40000 kPa	885.2	878.9	872.8	866.4	859.7	852.3	843.9	834.4
303.15 K, 45000 kPa	888.2	881.8	875.6	869.3	862.6	855.1	846.9	837.3
303.15 K, 50000 kPa	891.1	884.8	878.5	872.2	865.5	858	849.7	840.1
303.15 K, 55000 kPa	894	887.6	881.4	875.1	868.6	860.9	852.5	843
303.15 K, 60000 kPa	896.7	890.3	884.1	877.8	871.1	863.6	855.2	845.6
303.15 K, 65000 kPa	899.2	893	886.7	880.4	873.7	866.1	857.8	848.2
313.15 K, 100 kPa	847.8	841.3	835.1	829	822.4	815.2	807.3	797.9
313.15 K, 5000 kPa	852	845.5	839.3	833.1	826.6	819.3	811.5	802.1
313.15 K, 10000 kPa	856.1	849.6	843.4	837.2	830.7	823.4	815.5	806.2
313.15 K, 15000 kPa	859.9	853.6	847.4	841.2	834.7	827.5	819.3	810
313.15 K, 20000 kPa	863.5	857.3	851.1	844.9	838.4	831.2	823	813.6
313.15 K, 25000 kPa	867.1	860.9	854.7	848.5	841.9	834.7	826.5	817.1
313.15 K, 30000 kPa	870.5	864.3	858.1	851.9	845.4	838.1	829.9	820.5
313.15 K, 35000 kPa	873.8	867.6	861.5	855.3	848.7	841.4	833.2	823.7
313.15 K, 40000 kPa	877	870.8	864.7	858.4	851.9	844.6	836.4	826.9
313.15 K, 45000 kPa	880.2	874	867.8	861.6	855	847.7	839.4	830
313.15 K, 50000 kPa	883.3	876.9	870.8	864.5	857.9	850.6	842.5	833
313.15 K, 55000 kPa	886.2	879.9	873.8	867.5	860.9	853.5	845.3	835.9
313.15 K, 60000 kPa	889	882.7	876.6	870.4	863.7	856.3	848.2	838.7
313.15 K, 65000 kPa	891.8	885.5	879.3	873.1	866.5	859.1	850.9	841.4
323.15 K, 100 kPa	838.4	831.7	825.5	819.3	812.9	805.9	798.2	789.3
323.15 K, 5000 kPa	842.7	836.2	829.9	823.8	817.3	810.3	802.6	793.6
323.15 K, 10000 kPa	847	840.5	834.3	828	821.6	814.5	806.9	797.9
323.15 K, 15000 kPa	851.1	844.5	838.4	832.2	825.8	818.7	810.9	801.8
323.15 K, 20000 kPa	855	848.5	842.3	836.1	829.7	822.6	814.8	805.7
323.15 K, 25000 kPa	858.9	852.2	846.1	839.9	833.5	826.3	818.6	809.5
323.15 K, 30000 kPa	862.5	855.9	849.7	843.5	837.1	829.9	822.2	813

— the NIST ThermoML archive (doi:10.1016/j.fluid.2006.05.032)
